From US20020019336A1, “Sustained release drug compositions” (priority 2000, published 2002)

System: neovascularization
Assay: neovascularization after subcutaneous injection or implantation in rats
Type: in vivo
Conditions: back subcutaneous tissue, seven days after administration, 1 μg bFGF
Description: The compositions listed in Table 1 below were generated essentially according to Example 9, with modifications as indicated.
All compositions, including controls, were injected or implanted into the back subcutaneous tissue of rats. It was known that bFGF promotes neovascularization. Seven days after administration, each rat was evaluated for neovascularization at the area peripheral to the site of injection or implantation.
To distinguish newly synthesized blood vessels from pre-existing ones, lipid microspheres were injected into […] just superficial to the pre-existing capillary bed early in the experiment (at day 0). At the end of the experiment, the neovascular capillaries, if any, would reside superficial to the microspheres. Thus, new capillaries were easily identified by seeing whether there was vascularization above (superficial to) the microspheres at the end of the experiment.

Substance: basic fibroblast growth factor [bFGF alone]
- neovascularization at area peripheral to site of injection or implantation: no neovascularization
